In ChEMBL document CHEMBL5291721, “A preclinical secondary pharmacology resource illuminates target-adverse drug reaction associations of marketed drugs” (Nat Commun, 2023):
Values belong to the molecule of their own block, whether it stands above or below them.

Columns and labels:
[1] = target: T1, 5-hydroxytryptamine receptor 2B (Homo sapiens, UniProt P41595)
Estrogen receptor [2] = target: T2, Estrogen receptor (Homo sapiens, UniProt P03372); type: functional
T2 sequence (P03372 whole entry): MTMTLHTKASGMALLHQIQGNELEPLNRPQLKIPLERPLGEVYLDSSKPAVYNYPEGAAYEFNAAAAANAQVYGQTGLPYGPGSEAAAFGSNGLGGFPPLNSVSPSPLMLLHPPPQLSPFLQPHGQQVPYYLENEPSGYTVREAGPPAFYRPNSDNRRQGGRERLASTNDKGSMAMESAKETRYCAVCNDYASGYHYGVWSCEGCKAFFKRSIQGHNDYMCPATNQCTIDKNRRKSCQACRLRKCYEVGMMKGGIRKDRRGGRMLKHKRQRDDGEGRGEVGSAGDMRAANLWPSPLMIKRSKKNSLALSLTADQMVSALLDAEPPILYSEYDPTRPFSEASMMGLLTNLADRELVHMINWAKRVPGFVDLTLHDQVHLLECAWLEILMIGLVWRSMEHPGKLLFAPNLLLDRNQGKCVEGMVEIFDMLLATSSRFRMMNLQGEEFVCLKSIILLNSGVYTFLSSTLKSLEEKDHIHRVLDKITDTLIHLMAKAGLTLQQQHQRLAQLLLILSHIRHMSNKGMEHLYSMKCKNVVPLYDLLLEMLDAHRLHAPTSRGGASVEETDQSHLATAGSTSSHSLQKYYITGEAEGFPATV

[3] = target: T3, Peroxisome proliferator-activated receptor alpha (Homo sapiens, UniProt Q07869); type: functional
T3 sequence (Q07869 whole entry): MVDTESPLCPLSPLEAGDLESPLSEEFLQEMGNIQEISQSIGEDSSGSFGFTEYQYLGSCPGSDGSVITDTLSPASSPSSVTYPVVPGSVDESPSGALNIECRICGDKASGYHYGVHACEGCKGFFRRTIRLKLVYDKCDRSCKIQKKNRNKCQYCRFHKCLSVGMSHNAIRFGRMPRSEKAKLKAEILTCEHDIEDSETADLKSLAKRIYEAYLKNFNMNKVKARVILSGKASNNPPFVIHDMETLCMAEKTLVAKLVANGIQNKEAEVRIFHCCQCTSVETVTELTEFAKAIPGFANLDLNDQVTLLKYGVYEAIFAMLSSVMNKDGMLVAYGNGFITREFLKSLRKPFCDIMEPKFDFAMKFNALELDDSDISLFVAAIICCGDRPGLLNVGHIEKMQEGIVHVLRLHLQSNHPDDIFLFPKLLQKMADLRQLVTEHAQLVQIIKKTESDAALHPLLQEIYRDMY

[4] = target: T4, Muscarinic acetylcholine receptor M2 (Homo sapiens, UniProt P08172)
T4 sequence (P08172 whole entry): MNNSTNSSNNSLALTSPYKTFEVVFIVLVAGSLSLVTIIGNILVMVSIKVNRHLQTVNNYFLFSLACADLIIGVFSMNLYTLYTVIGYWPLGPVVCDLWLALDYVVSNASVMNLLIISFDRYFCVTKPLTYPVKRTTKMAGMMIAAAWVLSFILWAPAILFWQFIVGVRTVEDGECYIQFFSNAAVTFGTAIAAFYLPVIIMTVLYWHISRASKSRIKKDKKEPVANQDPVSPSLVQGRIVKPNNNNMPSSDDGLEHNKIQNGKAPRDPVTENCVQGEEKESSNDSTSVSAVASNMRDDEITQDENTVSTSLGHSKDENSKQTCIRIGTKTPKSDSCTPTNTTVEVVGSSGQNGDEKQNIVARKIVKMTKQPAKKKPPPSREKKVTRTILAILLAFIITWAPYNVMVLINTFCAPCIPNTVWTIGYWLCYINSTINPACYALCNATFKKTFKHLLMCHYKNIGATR

Estrogen receptor [5] = target: T2, Estrogen receptor
[6] = target: T5, 5-hydroxytryptamine receptor 1A (Homo sapiens, UniProt P08908)
T5 sequence (P08908 whole entry): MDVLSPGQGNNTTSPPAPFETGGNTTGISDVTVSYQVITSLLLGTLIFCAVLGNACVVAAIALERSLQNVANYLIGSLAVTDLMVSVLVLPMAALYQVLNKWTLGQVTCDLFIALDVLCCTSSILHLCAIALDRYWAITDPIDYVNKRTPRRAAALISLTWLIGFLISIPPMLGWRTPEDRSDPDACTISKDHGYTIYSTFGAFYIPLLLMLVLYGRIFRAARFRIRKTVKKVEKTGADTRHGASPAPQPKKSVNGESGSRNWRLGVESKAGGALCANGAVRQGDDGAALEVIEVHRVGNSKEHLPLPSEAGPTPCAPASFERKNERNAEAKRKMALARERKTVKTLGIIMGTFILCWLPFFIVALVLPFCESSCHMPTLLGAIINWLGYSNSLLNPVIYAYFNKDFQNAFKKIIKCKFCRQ

[7] = target: T1, 5-hydroxytryptamine receptor 2B; type: functional, cell-based
[8] = target: Sodium-dependent noradrenaline transporter (Homo sapiens, UniProt P23975)
Sodium-dependent noradrenaline transporter, sequence (P23975 whole entry): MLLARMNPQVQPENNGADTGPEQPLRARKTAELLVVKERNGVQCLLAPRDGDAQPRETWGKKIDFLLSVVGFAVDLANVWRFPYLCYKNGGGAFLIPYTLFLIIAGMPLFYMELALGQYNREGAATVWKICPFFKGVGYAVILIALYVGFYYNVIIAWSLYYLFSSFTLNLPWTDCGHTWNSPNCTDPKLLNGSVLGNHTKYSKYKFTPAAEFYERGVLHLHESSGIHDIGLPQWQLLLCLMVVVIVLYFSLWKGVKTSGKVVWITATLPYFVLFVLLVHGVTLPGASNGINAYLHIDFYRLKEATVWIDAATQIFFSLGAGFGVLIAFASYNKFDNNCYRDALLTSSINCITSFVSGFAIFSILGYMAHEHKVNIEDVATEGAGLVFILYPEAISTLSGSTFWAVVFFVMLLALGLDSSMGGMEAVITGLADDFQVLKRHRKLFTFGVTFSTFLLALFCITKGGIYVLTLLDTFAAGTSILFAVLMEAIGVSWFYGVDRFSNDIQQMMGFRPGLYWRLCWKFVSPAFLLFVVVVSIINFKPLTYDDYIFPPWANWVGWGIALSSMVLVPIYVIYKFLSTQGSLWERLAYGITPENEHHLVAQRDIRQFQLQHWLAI
Also: assay procedure not described here.

T1 sequence (P41595 whole entry): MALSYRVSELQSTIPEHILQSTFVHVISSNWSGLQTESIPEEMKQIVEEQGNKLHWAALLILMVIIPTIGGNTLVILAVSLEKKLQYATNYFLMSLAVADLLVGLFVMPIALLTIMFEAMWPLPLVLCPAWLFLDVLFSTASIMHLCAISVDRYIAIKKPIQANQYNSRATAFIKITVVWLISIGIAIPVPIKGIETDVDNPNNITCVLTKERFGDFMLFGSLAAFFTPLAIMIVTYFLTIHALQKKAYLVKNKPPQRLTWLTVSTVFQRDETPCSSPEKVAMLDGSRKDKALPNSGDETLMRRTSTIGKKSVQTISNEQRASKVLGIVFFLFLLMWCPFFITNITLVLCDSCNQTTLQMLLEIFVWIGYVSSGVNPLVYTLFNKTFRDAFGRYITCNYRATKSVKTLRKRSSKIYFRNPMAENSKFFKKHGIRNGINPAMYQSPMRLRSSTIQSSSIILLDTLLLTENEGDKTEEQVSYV

AC50 [1]: 10.6 µM
SMILES: Fc1ccc([C@@H]2CCNC[C@H]2COc2ccc3c(c2)OCO3)cc1 [PAROXETINE]

AC50 (Estrogen receptor [2]): > 30 µM
SMILES: CCOC(=O)[C@@H](N)Cc1ccc(-c2cc(O[C@H](c3ccc(Cl)cc3-n3ccc(C)n3)C(F)(F)F)nc(N)n2)cc1 [TELOTRISTAT ETHYL]

AC50 [3]: > 30 µM
SMILES: CCOC(=O)C(C)(C)Oc1ccc(Cl)cc1 [CLOFIBRATE]

AC50 [4]: 768 nM | AC50 (Estrogen receptor [5]): > 30 µM | AC50 [6]: 2260 nM | AC50 [7]: > 30 µM | AC50 [8]: 6.92 µM
SMILES: CCN(CC)CCCC(C)Nc1c2ccc(Cl)cc2nc2ccc(OC)cc12 (stereo not drawn) [QUINACRINE]
